According to PubChem BioAssay (NCI):
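Cells were grown in 96-well plates and exposed to each compound for 48 hours at five concentrations; endpoints were interpolated linearly between bracketing concentrations, or set to the highest concentration if not reached. TGI: total growth inhibition.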

Legend:
Experiment in all cases: NCI anticancer screen, dose series, 48 h
786-0 renal = tested on: 786-0 renal
A498 renal = tested on: A498 renal
A549 NSCLC = tested on: A549 NSCLC
ACHN renal = tested on: ACHN renal
BT-549 breast = tested on: BT-549 breast
CAKI-1 renal = tested on: CAKI-1 renal
CCRF-CEM leukemia = tested on: CCRF-CEM leukemia
COLO 205 colon = tested on: COLO 205 colon
DU-145 prostate = tested on: DU-145 prostate
EKVX NSCLC = tested on: EKVX NSCLC
HCC-2998 colon = tested on: HCC-2998 colon
HCT-116 colon = tested on: HCT-116 colon
HCT-15 colon = tested on: HCT-15 colon
HL-60(TB) leukemia = tested on: HL-60(TB) leukemia
HOP-62 NSCLC = tested on: HOP-62 NSCLC
HOP-92 NSCLC = tested on: HOP-92 NSCLC
HS 578T breast = tested on: HS 578T breast
HT29 colon = tested on: HT29 colon
IGROV1 ovarian = tested on: IGROV1 ovarian
K-562 leukemia = tested on: K-562 leukemia
KM12 colon = tested on: KM12 colon
LOX IMVI melanoma = tested on: LOX IMVI melanoma
M14 melanoma = tested on: M14 melanoma
MALME-3M melanoma = tested on: MALME-3M melanoma
MCF7 breast = tested on: MCF7 breast
MDA-MB-435 = tested on: MDA-MB-435
MDA-N = tested on: MDA-N
MOLT-4 leukemia = tested on: MOLT-4 leukemia
NCI-H226 lung = tested on: NCI-H226 lung
NCI-H23 lung = tested on: NCI-H23 lung
NCI-H460 lung = tested on: NCI-H460 lung
NCI-H522 lung = tested on: NCI-H522 lung
NCI/ADR-RES ovarian = tested on: NCI/ADR-RES ovarian
OVCAR-3 ovarian = tested on: OVCAR-3 ovarian
OVCAR-4 ovarian = tested on: OVCAR-4 ovarian
OVCAR-5 ovarian = tested on: OVCAR-5 ovarian
OVCAR-8 ovarian = tested on: OVCAR-8 ovarian
PC-3 prostate = tested on: PC-3 prostate
RPMI-8226 leukemia = tested on: RPMI-8226 leukemia
RXF 393 renal = tested on: RXF 393 renal
SF-268 CNS = tested on: SF-268 CNS
SF-295 CNS = tested on: SF-295 CNS
SF-539 CNS = tested on: SF-539 CNS
SK-MEL-2 melanoma = tested on: SK-MEL-2 melanoma
SK-MEL-28 melanoma = tested on: SK-MEL-28 melanoma
SK-MEL-5 melanoma = tested on: SK-MEL-5 melanoma
SK-OV-3 ovarian = tested on: SK-OV-3 ovarian
SN12C renal = tested on: SN12C renal
SNB-19 CNS = tested on: SNB-19 CNS
SNB-75 CNS = tested on: SNB-75 CNS
SR leukemia = tested on: SR leukemia
SW-620 colon = tested on: SW-620 colon
T-47D breast = tested on: T-47D breast
TK-10 renal = tested on: TK-10 renal
U251 CNS = tested on: U251 CNS
UACC-62 melanoma = tested on: UACC-62 melanoma
UO-31 renal = tested on: UO-31 renal
MDA-MB-231 breast = tested on: MDA-MB-231 breast
UACC-257 melanoma = tested on: UACC-257 melanoma

## COc1oc(C(=O)NC2CCCCC2)c(-c2ccc(Cl)cc2)c1S(=O)(=O)c1ccccc1
786-0 renal
  TGI: 3.59 µM
A498 renal
  TGI: 4.08 µM
A549 NSCLC
  TGI: > 100 µM
ACHN renal
  TGI: > 100 µM
BT-549 breast
  TGI: > 22.1 µM
CAKI-1 renal
  TGI: 10.7 µM
CCRF-CEM leukemia
  TGI: 4.66 µM
COLO 205 colon
  TGI: 44.9 µM
DU-145 prostate
  TGI: > 74.4 µM
EKVX NSCLC
  TGI: > 30.9 µM
HCC-2998 colon
  TGI: > 100 µM
HCT-116 colon
  TGI: > 100 µM
HCT-15 colon
  TGI: > 100 µM
HL-60(TB) leukemia
  TGI: 6.4 µM
HOP-62 NSCLC
  TGI: 22 µM
HOP-92 NSCLC
  TGI: 3.06 µM
HS 578T breast
  TGI: 68.6 µM
HT29 colon
  TGI: 5.42 µM
IGROV1 ovarian
  TGI: 3.35 µM
K-562 leukemia
  TGI: > 52.4 µM
KM12 colon
  TGI: 25.2 µM
LOX IMVI melanoma
  TGI: 7.54 µM
M14 melanoma
  TGI: > 100 µM
MALME-3M melanoma
  TGI: > 45.9 µM
MCF7 breast
  TGI: > 100 µM
MDA-MB-435
  TGI: 28.9 µM
MDA-N
  TGI: > 100 µM
MOLT-4 leukemia
  TGI: > 75.2 µM
NCI-H226 lung
  TGI: > 100 µM
NCI-H23 lung
  TGI: > 25.5 µM
NCI-H460 lung
  TGI: > 36.1 µM
NCI-H522 lung
  TGI: 2.94 µM
NCI/ADR-RES ovarian
  TGI: 8.42 µM
OVCAR-3 ovarian
  TGI: 3.59 µM
OVCAR-4 ovarian
  TGI: 3.51 µM
OVCAR-5 ovarian
  TGI: > 100 µM
OVCAR-8 ovarian
  TGI: > 19.8 µM
PC-3 prostate
  TGI: > 41.3 µM
RPMI-8226 leukemia
  TGI: 5.59 µM
RXF 393 renal
  TGI: 9.76 µM
SF-268 CNS
  TGI: 10.8 µM
SF-295 CNS
  TGI: > 62 µM
SF-539 CNS
  TGI: 14.4 µM
SK-MEL-2 melanoma
  TGI: 39 µM
SK-MEL-28 melanoma
  TGI: > 100 µM
SK-MEL-5 melanoma
  TGI: > 100 µM
SK-OV-3 ovarian
  TGI: > 100 µM
SN12C renal
  TGI: > 46.2 µM
SNB-19 CNS
  TGI: > 100 µM
SNB-75 CNS
  TGI: > 100 µM
SR leukemia
  TGI: > 25.3 µM
SW-620 colon
  TGI: > 100 µM
T-47D breast
  TGI: > 100 µM
TK-10 renal
  TGI: > 89.1 µM
U251 CNS
  TGI: 7.61 µM
UACC-62 melanoma
  TGI: 72.2 µM
UO-31 renal
  TGI: 3.22 µM

## COc1ccc(OC)c(C(=O)c2cccc(C(=O)c3cc(OC)ccc3OC)n2)c1
786-0 renal
  TGI: > 100 µM
A549 NSCLC
  TGI: > 100 µM
ACHN renal
  TGI: > 100 µM
BT-549 breast
  TGI: 79.2 µM
CAKI-1 renal
  TGI: > 100 µM
CCRF-CEM leukemia
  TGI: > 100 µM
COLO 205 colon
  TGI: > 100 µM
DU-145 prostate
  TGI: > 100 µM
EKVX NSCLC
  TGI: > 100 µM
HCC-2998 colon
  TGI: > 100 µM
HCT-116 colon
  TGI: > 100 µM
HCT-15 colon
  TGI: > 100 µM
HL-60(TB) leukemia
  TGI: 71.9 µM
HOP-62 NSCLC
  TGI: > 100 µM
HS 578T breast
  TGI: 84.5 µM
HT29 colon
  TGI: > 100 µM
IGROV1 ovarian
  TGI: > 100 µM
K-562 leukemia
  TGI: > 100 µM
KM12 colon
  TGI: > 100 µM
LOX IMVI melanoma
  TGI: > 100 µM
M14 melanoma
  TGI: > 100 µM
MALME-3M melanoma
  TGI: > 100 µM
MCF7 breast
  TGI: 67.5 µM
MDA-MB-231 breast
  TGI: > 100 µM
MDA-N
  TGI: 62.6 µM
MOLT-4 leukemia
  TGI: > 100 µM
NCI-H226 lung
  TGI: 74.9 µM
NCI-H23 lung
  TGI: 74 µM
NCI-H460 lung
  TGI: > 100 µM
NCI-H522 lung
  TGI: > 100 µM
NCI/ADR-RES ovarian
  TGI: > 100 µM
OVCAR-4 ovarian
  TGI: > 100 µM
OVCAR-5 ovarian
  TGI: > 100 µM
OVCAR-8 ovarian
  TGI: > 100 µM
PC-3 prostate
  TGI: > 100 µM
RXF 393 renal
  TGI: 43.4 µM
SF-268 CNS
  TGI: > 100 µM
SF-295 CNS
  TGI: 74.5 µM
SF-539 CNS
  TGI: > 100 µM
SK-MEL-2 melanoma
  TGI: 70.9 µM
SK-MEL-28 melanoma
  TGI: > 100 µM
SK-MEL-5 melanoma
  TGI: 50.5 µM
SK-OV-3 ovarian
  TGI: > 100 µM
SN12C renal
  TGI: > 100 µM
SNB-19 CNS
  TGI: > 100 µM
SNB-75 CNS
  TGI: 59.4 µM
SR leukemia
  TGI: > 100 µM
SW-620 colon
  TGI: > 100 µM
T-47D breast
  TGI: > 100 µM
TK-10 renal
  TGI: > 100 µM
U251 CNS
  TGI: > 100 µM
UACC-257 melanoma
  TGI: > 100 µM
UACC-62 melanoma
  TGI: > 100 µM
UO-31 renal
  TGI: 85.9 µM
